Tested on: promoters of CCL5, CXCL9, CXCL10 and CXCL11
Assay: ChIP-qPCR on chemokine promoters
Assay type: cell-based, human
Conditions: SCC23 cells
Experimental: ChIP-qPCR assays were performed as previously described (Ding et al, 2013). Briefly, SCC cells were sequentially treated with dimethyl 3,3′-dithiobispropionimidate-HCl (DTBP; Cat #20665, Thermo Fisher Scientific) solution and formaldehyde, and harvested with a cell scraper. The cell pellet was lysed with ChIP lysis buffer and sonicated to generate 200-500 bp DNA fragments with a sonicator. The fragmented chromatins were immunoprecipitated with anti-BMI1 (Cell Signaling Technology, Cat #6964), anti-Ubiquityl-Histone H2A (Lys119) (Cell Signaling Technology, Cat #8240) overnight at 4° C. The precipitated DNA-chromatin products were purified with ChIP DNA clean & concentrator kit (Cat #D5205, Zymo Research) and the DNA levels were quantified by qPCR. Data is presented as the percentage of input DNA.

COc1cc(Br)c(Nc2nc(-c3c(C)nc4ncccn34)cs2)c(Br)c1 [PTC209, N-(2,6-dibromo-4-methoxyphenyl)-4-(2-methylimidazo[1,2-a]pyrimidin-3-yl)thiazol-2-amine]
levels of BMI1 on the promoters of CCL5, CXCL9, CXCL10 and CXCL11: significantly reduced the levels of BMI1 on these promoters in SCC23 cells | levels of H2AUb marks on the promoters of CCL5, CXCL9, CXCL10 and CXCL11: significantly decreased in SCC23 cells

Reference: patent publication US20230233566A1, “INHIBITION OF BMI1 ELIMINATES CANCER STEM CELLS AND ACTIVATES ANTITUMOR IMMUNITY” (The Regents of the University of California, priority 2020, published 2023)
